One series concerns the target T1, CD13 receptor (Homo sapiens, UniProt P15144).
T1 construct: endogenous in cells; host or cells: HT-1080 human fibrosarcoma cells
Put plainly: Cell-based competitive binding assay against ^125I-NGR. Particulars: HT-1080 cells, competitor 10^-12 to 10^-5 M, gamma counter, n = 3; read-out: IC50, inhibition of ^125I-NGR binding to CD13 receptor. On the procedure: In vitro CD13 binding affinity and specificity of NOTA-G3-NGR were tested by a cell-based competitive assay. The binding of ^125I-NGR to CD13 receptors in HT-1080 cells can be inhibited by NOTA-G3-NGR in a dose-dependent manner (Figure 1b).
In vitro CD13 receptor binding affinity and specificity of NOTA-G3-NGR in HT-1080 cells were assessed using a cell-based competitive assay. ^125I-labeled linear NGR peptide (sequence H-Tyr-Gly-Gly-Cys-Asn-Gly-Arg-Cys-OH) was prepared using the Iodogen method and used as the radioligand for CD13. The non-radiolabeled NOTA-G3-NGR peptide (concentrations at a range from 10^−12 to 10^−5 M) was co-incubated with ^125I-NGR in HT-1080 cells. After washing with ice-cold binding buffer three times, the HT-1080 cells were lysed in 200 µL of lysis buffer. The cell-associated radioactivity was then measured using a gamma counter (Beijing PET CO., Ltd., Beijing, China). The IC50 (50% inhibitory concentration) value was obtained by fitting the data using nonlinear regression with GraphPad Prism (GraphPad Software, San Diego, CA, USA). Experiments were performed in triplicate.

The nature of a further series: physchem. Format: physicochemical. Particulars: pH 7.4. On the procedure: The octanol–water partition coefficient value was determined by measuring the distribution (logD) of radioactivity in octanol and PBS. Approximately 5 KBq of ^68Ga- NOTA-G3-NGR (2 μL) was added to a vial containing 0.5 mL of octanol and 0.5 mL of PBS (pH = 7.4). The mixture was then vortexed vigorously for 15 min. Subsequently, the mixture was centrifuged at 12,500 rpm for 5 min to ensure the complete separation of layers. Aliquots of the aqueous and octanol layers were collected, measured in a gamma counter (Beijing PET CO., Ltd., Beijing, China). The octanol–water partition coefficient value was then calculated (n = 5).

T1 sequence (P15144 whole entry): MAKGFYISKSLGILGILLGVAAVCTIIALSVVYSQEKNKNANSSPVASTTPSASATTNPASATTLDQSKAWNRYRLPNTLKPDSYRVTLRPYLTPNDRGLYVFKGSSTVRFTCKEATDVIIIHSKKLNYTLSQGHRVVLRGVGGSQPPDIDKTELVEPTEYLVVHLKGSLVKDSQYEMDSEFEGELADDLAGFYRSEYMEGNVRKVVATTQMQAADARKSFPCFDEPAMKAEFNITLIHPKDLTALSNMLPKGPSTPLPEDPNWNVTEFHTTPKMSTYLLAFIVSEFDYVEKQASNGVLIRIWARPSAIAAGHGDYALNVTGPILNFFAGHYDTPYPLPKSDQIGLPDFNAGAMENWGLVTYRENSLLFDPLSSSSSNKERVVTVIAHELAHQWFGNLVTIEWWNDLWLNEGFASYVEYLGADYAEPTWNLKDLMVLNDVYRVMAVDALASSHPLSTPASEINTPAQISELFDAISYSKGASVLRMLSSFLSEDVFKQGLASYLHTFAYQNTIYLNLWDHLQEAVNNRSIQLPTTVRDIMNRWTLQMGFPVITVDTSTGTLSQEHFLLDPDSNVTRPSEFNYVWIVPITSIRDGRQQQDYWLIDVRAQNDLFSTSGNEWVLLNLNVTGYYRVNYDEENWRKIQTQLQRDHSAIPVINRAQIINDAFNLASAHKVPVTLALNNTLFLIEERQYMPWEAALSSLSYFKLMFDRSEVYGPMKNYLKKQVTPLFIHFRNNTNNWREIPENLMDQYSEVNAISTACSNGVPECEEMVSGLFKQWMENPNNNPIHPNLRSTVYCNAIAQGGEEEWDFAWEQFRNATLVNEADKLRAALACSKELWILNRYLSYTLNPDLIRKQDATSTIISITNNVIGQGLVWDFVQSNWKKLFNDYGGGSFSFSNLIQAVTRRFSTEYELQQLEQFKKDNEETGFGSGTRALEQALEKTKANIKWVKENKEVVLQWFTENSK

A word on the IC50: it is the concentration needed to halve the response being measured. In the case of `N=C(N)NCCC[C@@H]1NC(=O)CNC(=O)[C@H](CC(N)=O)NC(=O)[C@@H](NC(=O)CNC(=O)CNC(=O)CNC(=S)Nc2ccc(CC3CN(CC(=O)O)CCN(CC(=O)O)CCN3CC(=O)O)cc2)CSSC[C@@H](C(=O)O)NC1=O` (some centres unmarked) [NOTA-G3-NGR], the IC50 on CD13 receptor was determined as 74.7 ± 3.91 nM.
Usually logD stands for the decadic logarithm of the distribution of all forms, ionised or not, between an organic phase and buffer at a given pH. Compound `N=C(N)NCCC[C@@H]1NC(=O)CNC(=O)[C@H](CC(N)=O)NC(=O)[C@@H](NC(=O)CNC(=O)CNC(=O)CNC(=S)Nc2ccc(CC3CN(CC(=O)O)CCN(CC(=O)O)CCN3CC(=O)O)cc2)CSSC[C@@H](C(=O)O)NC1=O` (some centres unmarked) [^68Ga-NOTA-G3-NGR, metal not drawn] yielded a logD in the series “physchem” of -2.25 ± 0.17.

Values taken from paper PMC6271277, “^68Ga-Labeled Cyclic NGR Peptide for MicroPET Imaging of CD13 Receptor Expression” (Molecules, 2014).
